In patent US5098930A, “Heterocyclic derivatives” (Imperial Chemical Industries PLC, priority 1988, dated 1992):

How the values were obtained:
[1] = target: T1, 5-LO (Homo sapiens, UniProt P09917); test: test b) in vitro heparinised human blood, A23187 challenge, LTB4 radioimmunoassay; type: cell-based
T1 construct: incubating a test compound with heparinised human blood; endogenous in cells; host or cells: blood cells in heparinised human blood
T1 sequence (P09917 1-674): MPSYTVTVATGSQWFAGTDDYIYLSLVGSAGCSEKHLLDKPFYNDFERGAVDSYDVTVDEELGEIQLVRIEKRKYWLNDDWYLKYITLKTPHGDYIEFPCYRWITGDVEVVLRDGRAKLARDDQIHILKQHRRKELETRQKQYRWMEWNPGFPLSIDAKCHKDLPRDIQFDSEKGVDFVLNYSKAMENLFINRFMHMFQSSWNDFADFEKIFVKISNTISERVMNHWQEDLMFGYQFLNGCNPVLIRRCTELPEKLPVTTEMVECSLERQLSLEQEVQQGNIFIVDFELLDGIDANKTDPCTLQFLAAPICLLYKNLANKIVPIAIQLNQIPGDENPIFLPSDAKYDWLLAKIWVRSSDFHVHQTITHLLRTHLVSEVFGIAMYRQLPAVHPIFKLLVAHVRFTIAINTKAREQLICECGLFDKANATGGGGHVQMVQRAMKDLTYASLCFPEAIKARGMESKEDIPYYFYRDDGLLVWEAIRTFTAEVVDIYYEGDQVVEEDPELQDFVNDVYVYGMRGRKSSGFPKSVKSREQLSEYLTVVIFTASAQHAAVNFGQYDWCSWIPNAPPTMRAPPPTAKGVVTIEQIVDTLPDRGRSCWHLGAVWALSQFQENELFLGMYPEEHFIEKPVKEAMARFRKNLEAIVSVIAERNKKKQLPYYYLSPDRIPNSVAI
Experimental: b) An in vitro assay system involving incubating a test compound with heparinised human blood, prior to challenge with the calcium ionophore A23187 and then indirectly measuring the inhibitory effects on 5-LO by assaying the amount of LTB4 using the specific radioimmunoassay described by Carey and Forder (F. Carey and R. A. Forder, Brit. […] This test provides an indication of the effects of a test compound against 5-LO and also cyclooxygenase in the presence of blood cells and proteins. It permits the selectivity of the inhibitory effect on 5-LO or cyclooxygenase to be assessed.

[2] = target: T2, 5-LO (Rattus norvegicus, UniProt P12527); test: test c) ex vivo assay, oral administration, blood collection, A23187 challenge, radioimmunoassay of LTB4; type: in vivo
T2 construct: blood collection, heparinisation, challenge with A23187 and radioimmunoassay of LTB4 and TxB2; endogenous in cells
T2 sequence (P12527 1-673): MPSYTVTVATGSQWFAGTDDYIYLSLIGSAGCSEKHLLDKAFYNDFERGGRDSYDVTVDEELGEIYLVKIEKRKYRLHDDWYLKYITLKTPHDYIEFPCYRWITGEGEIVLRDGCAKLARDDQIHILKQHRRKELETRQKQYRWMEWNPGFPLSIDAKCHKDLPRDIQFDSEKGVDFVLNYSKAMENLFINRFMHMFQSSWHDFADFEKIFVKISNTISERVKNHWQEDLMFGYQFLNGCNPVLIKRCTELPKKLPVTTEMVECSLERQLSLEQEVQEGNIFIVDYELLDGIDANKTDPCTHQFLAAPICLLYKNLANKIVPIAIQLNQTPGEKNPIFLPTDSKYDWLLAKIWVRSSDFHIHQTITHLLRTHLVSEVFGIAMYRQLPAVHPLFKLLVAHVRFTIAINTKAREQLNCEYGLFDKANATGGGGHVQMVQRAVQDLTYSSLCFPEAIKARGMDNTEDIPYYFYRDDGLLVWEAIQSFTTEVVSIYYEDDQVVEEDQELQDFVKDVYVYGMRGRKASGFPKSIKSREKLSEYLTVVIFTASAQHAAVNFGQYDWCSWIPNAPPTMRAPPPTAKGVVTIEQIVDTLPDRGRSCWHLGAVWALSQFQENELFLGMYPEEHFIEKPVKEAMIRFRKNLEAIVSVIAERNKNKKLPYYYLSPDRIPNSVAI
Experimental: c) An ex vivo assay system, which is a variation of test b) above, involving administration of a test compound (usually orally as the suspension produced when a solution of the test compound in dimethylsulphoxide is added to carboxymethylcellulose), blood collection, heparinisation, challenge with A23187 and radioimmunoassay of LTB4 and TxB2. This test provides an indication of the bioavailability of a test compound as an inhibitor of 5-LO or cyclooxygenase.

[3] = target: T3, cyclooxygenase (Homo sapiens, UniProt P23219); test: test b) in vitro heparinised human blood, A23187 challenge, TxB2 radioimmunoassay; type: cell-based
T3 construct: incubating a test compound with heparinised human blood; endogenous in cells; host or cells: blood cells (platelets by own knowledge) in heparinised human blood
Experimental: As stated previously, the heterocyclic derivatives of the formula I are inhibitors of the enzyme 5-LO.
b) An in vitro assay system involving incubating a test compound with heparinised human blood, prior to challenge with the calcium ionophore A23187 and then indirectly measuring the inhibitory effects on 5-LO by assaying the amount of LTB4 using the specific radioimmunoassay described by Carey and Forder (F. Carey and R. A. Forder, Brit. J. Pharmacol. 1985, 84, 34P) which involves the use of a protein-LTB4 conjugate produced using the procedure of Young et alia (Prostaglandins, 1983, 26(4), 605-613). The effects of a test compound on the enzyme cyclooxygenase (which is involved in the alternative metabolic pathway for arachidonic acid and gives rise to prostaglandins, thromboxanes and related metabolites) may be measured at the same time using the specific radioimmunoassay for thromboxane B2 (TxB2) described by Carey and Forder (see above). This test provides an indication of the effects of a test compound against 5-LO and also cyclooxygenase in the presence of blood cells and proteins. It permits the selectivity of the inhibitory effect on 5-LO or cyclooxygenase to be assessed.

T3 sequence (P23219 24-599): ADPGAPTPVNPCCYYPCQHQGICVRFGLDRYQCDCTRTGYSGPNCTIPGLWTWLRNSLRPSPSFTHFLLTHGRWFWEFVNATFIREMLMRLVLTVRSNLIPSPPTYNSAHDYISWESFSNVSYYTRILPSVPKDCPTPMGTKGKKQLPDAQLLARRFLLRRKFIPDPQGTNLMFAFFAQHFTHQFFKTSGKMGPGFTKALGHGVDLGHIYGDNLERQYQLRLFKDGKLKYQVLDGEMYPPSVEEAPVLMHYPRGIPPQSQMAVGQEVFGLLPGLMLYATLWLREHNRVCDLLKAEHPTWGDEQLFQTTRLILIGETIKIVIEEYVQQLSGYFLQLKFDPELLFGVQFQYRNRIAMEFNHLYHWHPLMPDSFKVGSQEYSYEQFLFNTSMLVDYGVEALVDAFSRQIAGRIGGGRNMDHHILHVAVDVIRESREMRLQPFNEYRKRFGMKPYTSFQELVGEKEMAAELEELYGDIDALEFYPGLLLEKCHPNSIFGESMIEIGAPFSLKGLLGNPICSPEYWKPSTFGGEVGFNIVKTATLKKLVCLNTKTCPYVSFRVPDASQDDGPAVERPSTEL

- IC50 [1]: 100 nM
- ED50 [2]: 5 mg/kg
- IC50 [3]: > 40000 nM
Compound: COC1(c2cccc(OCc3ccc4ccccc4c3)c2)CCOCC1 [4-methoxy-4-[3-(naphth-2-ylmethoxy)phenyl]tetrahydropyran]
